The values that follow come from US9040545B2, “Heterocyclyl pyrazolopyrimidine analogues as selective JAK inhibitors” (Cellzome Limited, priority 2010, dated 2015).

The target of the test is T1, JAK2 (Homo sapiens, UniProt O60674).
T1 construct: endogenous in cells; host or cells: mixed Molt4/Ramos lysate (1:2)
Put plainly: Kinobeads assay, JAK2. To be noted: mixed Molt4/Ramos lysate, read-out: Inhibition values (IC50) JAK2. It is filed as binding. Summed up: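 Competition binding in mixed Molt4/Ramos cell lysate (1:2, 10 mg/mL protein) with Kinobeads carrying immobilized aminopyrido-pyrimidine ligand, 3 h in cold room; 9-step 1:3 compound dilution series from 5 mM DMSO stock. Bead-bound JAK2/JAK3 eluted and quantified by antibody dot blot with infrared detection; IC50 from dose-response curves.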

T1 sequence (O60674 whole entry): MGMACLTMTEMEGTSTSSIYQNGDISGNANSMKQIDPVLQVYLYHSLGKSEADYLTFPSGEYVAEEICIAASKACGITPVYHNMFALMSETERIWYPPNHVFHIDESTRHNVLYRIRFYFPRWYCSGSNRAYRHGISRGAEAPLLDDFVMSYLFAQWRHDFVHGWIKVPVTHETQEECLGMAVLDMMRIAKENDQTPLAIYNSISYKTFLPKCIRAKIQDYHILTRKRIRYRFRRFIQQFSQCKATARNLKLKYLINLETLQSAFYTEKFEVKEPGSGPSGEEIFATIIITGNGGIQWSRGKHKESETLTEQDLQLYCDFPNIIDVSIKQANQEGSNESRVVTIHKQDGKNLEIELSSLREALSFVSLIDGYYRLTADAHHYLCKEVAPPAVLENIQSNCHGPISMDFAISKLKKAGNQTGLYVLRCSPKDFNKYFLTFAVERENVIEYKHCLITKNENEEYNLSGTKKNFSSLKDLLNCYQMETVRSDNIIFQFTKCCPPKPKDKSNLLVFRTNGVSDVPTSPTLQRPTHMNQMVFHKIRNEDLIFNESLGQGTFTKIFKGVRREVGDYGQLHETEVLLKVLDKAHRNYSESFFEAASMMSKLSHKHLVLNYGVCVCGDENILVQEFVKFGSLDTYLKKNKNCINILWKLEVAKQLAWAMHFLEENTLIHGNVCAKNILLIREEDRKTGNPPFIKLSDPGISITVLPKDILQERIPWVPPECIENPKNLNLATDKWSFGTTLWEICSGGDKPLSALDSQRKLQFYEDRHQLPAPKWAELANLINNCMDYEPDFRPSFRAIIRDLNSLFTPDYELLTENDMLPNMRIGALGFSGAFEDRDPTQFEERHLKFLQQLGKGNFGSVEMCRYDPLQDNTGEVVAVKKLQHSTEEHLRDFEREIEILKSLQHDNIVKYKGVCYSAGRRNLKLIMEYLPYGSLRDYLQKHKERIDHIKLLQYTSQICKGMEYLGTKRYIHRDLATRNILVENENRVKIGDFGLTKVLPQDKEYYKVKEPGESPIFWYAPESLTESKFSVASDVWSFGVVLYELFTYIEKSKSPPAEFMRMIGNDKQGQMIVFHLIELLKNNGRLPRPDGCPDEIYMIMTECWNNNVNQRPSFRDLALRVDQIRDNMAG

For `CN(C)CC(F)Cn1cc(Nc2ncc3cnn(Cc4cc(F)cc(N5CCOCC5=O)c4)c3n2)cn1` (centres unmarked) [Example 97, 4-(3-((6-((1-(3-(dimethylamino)-2-fluoropropyl)-1H-pyrazol-4-yl)amino)-1H-pyrazolo[3,4-d]pyrimidin-1-yl)methyl)-5-fluorophenyl)morpholin-3-one], the 50% inhibitory concentration (IC50) (in general, the concentration that gives 50% inhibition) is 1 to 10 µM.

As to `OCCn1cc(Nc2ncc3cnn(Cc4cccc(N5CCOCC5)c4)c3n2)cn1` [Example 5, 2-(4-((1-(3-Morpholinobenzyl)-1H-pyrazolo[3,4-d]pyrimidin-6-yl)amino)-1H-pyrazol-1-yl)ethanol], the IC50 is ≥ 10 µM. As for `O=C(Cn1cc(Nc2ncc3cnn(Cc4cc(F)cc(N5CCOCC5=O)c4)c3n2)cn1)N1CCNCC1` [Example 109, 4-(3-fluoro-5-((6-((1-(2-oxo-2-(piperazin-1-yl)ethyl)-1H-pyrazol-4-yl)amino)-1H-pyrazolo[3,4-d]pyrimidin-1-yl)methyl)phenyl)morpholin-3-one], the figure is 1 to 10 µM. With `C[C@@H]1COCCN1c1cccc(Cn2ncc3cnc(Nc4cnn(C)c4)nc32)n1` [Example 1, (R)—N-(1-Methyl-1H-pyrazol-4-yl)-1-((6-(3-methylmorpholino)pyridin-2-yl)methyl)-1H-pyrazolo[3,4-d]pyrimidin-6-amine], the IC50 was ≥ 10 µM. For `Cn1cc(Nc2ncc3cnn(Cc4cc(F)cc(-c5cnn(C)c5)c4)c3n2)cn1` [Example 125, 1-(3-fluoro-5-(1-methyl-1H-pyrazol-4-yl)benzyl)-N-(1-methyl-1H-pyrazol-4-yl)-1H-pyrazolo[3,4-d]pyrimidin-6-amine], the IC50 lay in the range of 0.1 to 1 µM.

On to `Cn1cc(Nc2ncc3cnn(Cc4cccc(C(=O)N5CCOCC5)c4)c3n2)cn1` [Example 6, (3-((6-((1-Methyl-1H-pyrazol-4-yl)amino)-1H-pyrazolo[3,4-d]pyrimidin-1-yl)methyl)phenyl)(morpholino)methanone], for which the IC50 is ≥ 10 µM. In the case of `CCCn1cc(-c2cccc(Cn3ncc4cnc(Nc5cnn(C)c5)nc43)c2)cn1` [Example 119, N-(1-methyl-1H-pyrazol-4-yl)-1-(3-(1-propyl-1H-pyrazol-4-yl)benzyl)-1H-pyrazolo[3,4-d]pyrimidin-6-amine] it was ≥ 10 µM. For the molecule `CNC(=O)Cn1cc(Nc2ncc3cnn(Cc4cccc(N5CCOCC5)c4)c3n2)cn1` [Example 12, N-Methyl-2-(4-((1-(3-morpholinobenzyl)-1H-pyrazolo[3,4-d]pyrimidin-6-yl)amino)-1H-pyrazol-1-yl)acetamide], the IC50 was ≥ 10 µM. Regarding `CN(C)CCCn1cc(Nc2ncc3cnn(Cc4cccc(N5CCOCC5)c4)c3n2)cn1` [Example 4, N-(1-(3-(Dimethylamino)propyl)-1H-pyrazol-4-yl)-1-(3-morpholinobenzyl)-1H-pyrazolo[3,4-d]pyrimidin-6-amine], the IC50 lay within 1 to 10 µM. For `Cn1cc(Nc2ncc3cnn(Cc4cc(C(=O)N5CCOCC5)cc(F)c4F)c3n2)cn1` [Example 98, (3,4-difluoro-5-((6-((1-methyl-1H-pyrazol-4-yl)amino)-1H-pyrazolo[3,4-d]pyrimidin-1-yl)methyl)phenyl)(morpholino)methanone], the IC50 lay in the range of 1 to 10 µM.

Take `CNCC1(Cn2cc(Nc3ncc4cnn(Cc5cccc(N6CCOCC6)c5)c4n3)cn2)COC1` [Example 41, N-(1-((3-((Methylamino)methyl)oxetan-3-yl)methyl)-1H-pyrazol-4-yl)-1-(3-morpholinobenzyl)-1H-pyrazolo[3,4-d]pyrimidin-6-amine]: the IC50 was ≥ 10 µM.

Take `Cn1cc(Nc2ncc3cnn(Cc4cccc(N5CCOCC5)c4F)c3n2)cn1` [Example 21, 1-(2-Fluoro-3-morpholinobenzyl)-N-(1-methyl-1H-pyrazol-4-yl)-1H-pyrazolo[3,4-d]pyrimidin-6-amine]: the IC50 lay in the range of 1 to 10 µM. Turning to `FC(F)Cn1cc(Nc2ncc3cnn(Cc4cccc(N5CCOCC5)c4)c3n2)cn1` [Example 23, N-(1-(2,2-Difluoroethyl)-1H-pyrazol-4-yl)-1-(3-morpholinobenzyl)-1H-pyrazolo[3,4-d]pyrimidin-6-amine], the IC50 is ≥ 10 µM. Consider `Cn1cc(Nc2ncc3cnn(Cc4cccc(-c5cn[nH]c5)c4)c3n2)cn1` [Example 118, 1-(3-(1H-pyrazol-4-yl)benzyl)-N-(1-methyl-1H-pyrazol-4-yl)-1H-pyrazolo[3,4-d]pyrimidin-6-amine], for which the 50% inhibitory concentration (IC50) is ≥ 10 µM. Turning to `Cn1cc(Nc2ncc3cnn(Cc4c(F)ccc(N5CCOCC5)c4F)c3n2)cn1` [Example 38, 1-(2,6-Difluoro-3-morpholinobenzyl)-N-(1-methyl-1H-pyrazol-4-yl)-1H-pyrazolo[3,4-d]pyrimidin-6-amine], the IC50 is ≥ 10 µM. As for `Cn1cc(Nc2ncc3cnn(Cc4cccc(N5CCOCC5)c4)c3n2)cn1` [Example 2, N-(1-Methyl-1H-pyrazol-4-yl)-1-(3-morpholinobenzyl)-1H-pyrazolo[3,4-d]pyrimidin-6-amine], the IC50 fell in the range of 1 to 10 µM. With `Cn1cc(-c2cccc(Cn3ncc4cnc(Nc5cnn(CCO)c5)nc43)c2F)cn1` [Example 124, 2-(4-((1-(2-fluoro-3-(1-methyl-1H-pyrazol-4-yl)benzyl)-1H-pyrazolo[3,4-d]pyrimidin-6-yl)amino)-1H-pyrazol-1-yl)ethanol], the IC50 lay in the range of 1 to 10 µM. With `Cn1cc(Nc2ncc3cnn(Cc4cccc(-c5cnn(C)c5)c4F)c3n2)cn1` [Example 123, 1-(2-fluoro-3-(1-methyl-1H-pyrazol-4-yl)benzyl)-N-(1-methyl-1H-pyrazol-4-yl)-1H-pyrazolo[3,4-d]pyrimidin-6-amine], the IC50 fell in the range of 1 to 10 µM.

For `Cn1cc(Nc2ncc3cnn(Cc4cc(N5CCOCC5)cc(F)c4F)c3n2)cn1` [Example 37, 1-(2,3-Difluoro-5-morpholinobenzyl)-N-(1-methyl-1H-pyrazol-4-yl)-1H-pyrazolo[3,4-d]pyrimidin-6-amine], the IC50 was ≥ 10 µM. With `O=C1CCCN1CCCn1cc(Nc2ncc3cnn(Cc4cccc(N5CCOCC5)c4)c3n2)cn1` [Example 30, 1-(3-(4-((1-(3-Morpholinobenzyl)-1H-pyrazolo[3,4-d]pyrimidin-6-yl)amino)-1H-pyrazol-1-yl)propyl)pyrrolidin-2-one], the IC50 is ≥ 10 µM.
